These results are taken from US20230355540A1, “STROKE TREATMENT” (Oxford University Innovation Limited, priority 2020, published 2023).

Data set [1] in a line: Mean arterial pressure through femoral artery catheter during infusion after MCAo (Examples 4 and 5). The class given is in vivo, rat. The conditions noted are these: from 25 minutes after MCAo for 45 minutes. The procedure:
Animals were randomized to receive intravenous infusion of saline (control, 0.3 ml/hr n=6) or infusion of free nitroglycerin (free-GTN, 0.25 μg/μl in saline, at 300 μl/h=4 μg/kg/min, n=6), commencing 25 minutes after MCAo.
Animals received intravenous infusion of free nitroglycerin (free-GTN, 2.5 μg/μl in saline, at 300 μl/h=40 μg/kg/min, n=4), commencing 25 minutes after MCAo. […] Vehicle control (saline) was the same control group used for 4 μg/kg/min studies (n=6).

Data set [2] relates to patients suffering ultra-acute stroke. As to conditions: transdermal (i.e. systemic) delivery; cited from earlier work.
Data set [3] has as its system Spontaneously Hypertensive Rats, middle cerebral artery occlusion (MCAo/stroke). Briefly: Collateral and control hemisphere perfusion by laser speckle contrast imaging after MCAo (Examples 4 and 5). Type of data set: in vivo, rat. As to conditions: from 25 minutes after MCAo for 45 minutes.
The test system is the same in data set [4]. The conditions noted are these: FIG. 3.
Procedure: Animal experiments were performed on male Spontaneously Hypertensive Rats (SHRs) weighing 300-350 g (Harlan, Bicester, UK). All animals were housed in a 12 h light/dark cycle and had ad libitum access to food and water prior to experiments.
Rats were anesthetized with 5% isoflurane in O2/N2 (1:3) and maintained with 1% to 2% isoflurane. Core temperature was maintained at 37° C. by a thermocouple rectal probe and warming plate (Harvard Apparatus, UK). Incision sites were shaved, cleaned, and injected subcutaneously with 2 mg/kg 0.05% Bupivacaine (Aspen, UK). A femoral arterial line was used for continuous arterial pressure monitoring.
The filament was advanced into the right external carotid artery stump and up the internal carotid artery to occlude the origin of the right MCA.
Laser Doppler flowmetry (LDF) (Oxford Optronix, Oxford, UK) was used to measure changes in cerebral blood flow (CBF) in both the MCA and collateral arterial territories using dual probes. The animal's head was secured with ear bars in a stereotaxic frame. […]
Prior to MCAo, the femoral vein was cannulated with 2-French silicon tubing. […] Collateral perfusion was measured as a change from pre-injection baseline.
Prior to MCAo, the femoral vein was cannulated with 2-French silicon tubing. […] Collateral perfusion was measured as a % change from pre-injection baseline.
Where [5] appears, read: i.v. infusion 4 μg/kg/min nitroglycerin.

Consider `O=[N+]([O-])OCC(CO[N+](=O)[O-])O[N+](=O)[O-]` [nitroglycerin], for which the “blood pressure (mean arterial pressure)” value is on record as “dropped” in data set [1] (setting [5]) and “significantly dropped” in data set [1] (i.v. infusion 40 μg/kg/min, FIG. 16). For the same molecule, the functional outcome in data set [2] is reported as “did not improve”. The “perfusion in the corresponding region of the control/contralateral hemisphere” value in data set [3] (setting [5]) is “no significant effect”; in data set [3] (i.v. infusion 40 μg/kg/min, FIG. 15), “no significant effect”. The “collateral blood perfusion (% change from pre-injection baseline)” value in data set [3] (i.v. infusion 4 μg/kg/min nitroglycerin, stroke hemisphere) is listed as “did not change”; in data set [3] (i.v. infusion 40 μg/kg/min, FIG. 14), “did not change”. Moreover, the peak collateral perfusion result in data set [4] (free nitroglycerin not delivered using a SA-NT, Example 3b) is “only a modest increase”. Besides, in data set [4] (one SHR, i.v. bolus over 1 minute of 12.5, 25, 50 and 100 m, from 30 minutes after MCAo), the “collateral perfusion with increasing doses” value was “no additional increase”.
